In the kinase profiling compilation of Christmann-Franck et al. (2016):

How the values were obtained:
Test in all cases: KINOMEscan competition binding
Settings in all cases: compound 10.0 µM
[1] = biological target: EPHA2 (human) (UniProt P29317)
[2] = biological target: PKN2 (human) (UniProt Q16513)
[3] = biological target: ERBB2 (human) (UniProt P04626)
[4] = biological target: ACVR1B (human) (UniProt P36896)
[5] = biological target: MAPKAPK2 (human) (UniProt P49137)
[6] = biological target: STK32B (human) (UniProt Q9NY57)
[7] = biological target: CSNK1D (human) (UniProt P48730)
[8] = biological target: CAMKK1 (human) (UniProt Q8N5S9)
[9] = biological target: PTK2 (human) (UniProt Q05397)
[10] = biological target: FGFR1 (human) (UniProt P11362)
[11] = biological target: TLK2 (human) (UniProt Q86UE8)
[12] = biological target: MAP3K4 (human) (UniProt Q9Y6R4)
[13] = biological target: PKN1 (human) (UniProt Q16512)
[14] = biological target: PLK4 (human) (UniProt O00444)
[15] = biological target: CSK (human) (UniProt P41240)
[16] = biological target: EPHA6 (human) (UniProt Q9UF33)
[17] = biological target: MAP4K5 (human) (UniProt Q9Y4K4)
[18] = biological target: ERBB4 (human) (UniProt Q15303)
[19] = biological target: CLK2 (human) (UniProt P49760)
[20] = biological target: SRPK1 (human) (UniProt Q96SB4)
[21] = biological target: MAPK7 (human) (UniProt Q13164)
[22] = biological target: CDC42BPG (human) (UniProt Q6DT37)
[23] = biological target: ULK3 (human) (UniProt Q6PHR2)
[24] = biological target: PDPK1 (human) (UniProt O15530)
[25] = biological target: RPS6KA2 KD1 (human) (UniProt Q15349)
[26] = biological target: PIM2 (human) (UniProt Q9P1W9)
[27] = biological target: PRKD2 (human) (UniProt Q9BZL6)
[28] = biological target: FGFR3 (human) (UniProt P22607)
[29] = biological target: AAK1 (human) (UniProt Q2M2I8)
[30] = biological target: PRKG1 (human) (UniProt Q13976)
[31] = biological target: MAP4K2 (human) (UniProt Q12851)
[32] = biological target: MAPK14 (human) (UniProt Q16539)
[33] = biological target: PAK4 (human) (UniProt O96013)
[34] = biological target: TGFBR1 (human) (UniProt P36897)
[35] = biological target: NLK (human) (UniProt Q9UBE8)
[36] = biological target: PLK3 (human) (UniProt Q9H4B4)
[37] = biological target: ACVR1 (human) (UniProt Q04771)
[38] = biological target: CDC42BPB (human) (UniProt Q9Y5S2)
[39] = biological target: RPS6KA4 KD1 (human) (UniProt O75676)
[40] = biological target: RPS6KA2 KD2 (human) (UniProt Q15349)

Chain of AAK1 (human) (Q2M2I8 whole entry, looked up): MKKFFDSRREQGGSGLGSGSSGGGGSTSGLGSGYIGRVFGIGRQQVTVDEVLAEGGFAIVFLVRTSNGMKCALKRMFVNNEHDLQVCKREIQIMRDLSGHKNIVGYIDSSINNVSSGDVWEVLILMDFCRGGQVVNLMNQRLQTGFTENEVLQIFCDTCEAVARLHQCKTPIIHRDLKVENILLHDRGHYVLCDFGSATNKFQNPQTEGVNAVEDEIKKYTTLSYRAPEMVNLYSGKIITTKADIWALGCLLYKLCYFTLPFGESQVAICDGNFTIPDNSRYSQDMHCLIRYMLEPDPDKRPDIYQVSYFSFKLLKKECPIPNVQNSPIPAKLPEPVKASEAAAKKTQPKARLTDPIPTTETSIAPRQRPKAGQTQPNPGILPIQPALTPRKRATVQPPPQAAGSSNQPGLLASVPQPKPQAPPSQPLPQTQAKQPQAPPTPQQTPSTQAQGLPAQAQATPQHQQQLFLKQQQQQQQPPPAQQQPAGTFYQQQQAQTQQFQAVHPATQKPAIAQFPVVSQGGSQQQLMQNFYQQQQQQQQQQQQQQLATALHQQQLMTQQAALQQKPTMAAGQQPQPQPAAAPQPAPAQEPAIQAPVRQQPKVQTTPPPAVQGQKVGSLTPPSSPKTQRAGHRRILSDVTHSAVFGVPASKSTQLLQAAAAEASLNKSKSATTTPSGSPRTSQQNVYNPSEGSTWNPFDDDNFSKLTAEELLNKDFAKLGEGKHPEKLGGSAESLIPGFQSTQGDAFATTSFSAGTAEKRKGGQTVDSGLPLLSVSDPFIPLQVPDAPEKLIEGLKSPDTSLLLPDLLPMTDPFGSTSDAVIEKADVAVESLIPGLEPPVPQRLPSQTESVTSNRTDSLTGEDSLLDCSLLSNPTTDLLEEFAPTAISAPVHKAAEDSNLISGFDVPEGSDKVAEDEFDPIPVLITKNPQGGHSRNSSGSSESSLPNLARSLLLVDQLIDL
Chain of ACVR1 (human) (Q04771 whole entry, looked up): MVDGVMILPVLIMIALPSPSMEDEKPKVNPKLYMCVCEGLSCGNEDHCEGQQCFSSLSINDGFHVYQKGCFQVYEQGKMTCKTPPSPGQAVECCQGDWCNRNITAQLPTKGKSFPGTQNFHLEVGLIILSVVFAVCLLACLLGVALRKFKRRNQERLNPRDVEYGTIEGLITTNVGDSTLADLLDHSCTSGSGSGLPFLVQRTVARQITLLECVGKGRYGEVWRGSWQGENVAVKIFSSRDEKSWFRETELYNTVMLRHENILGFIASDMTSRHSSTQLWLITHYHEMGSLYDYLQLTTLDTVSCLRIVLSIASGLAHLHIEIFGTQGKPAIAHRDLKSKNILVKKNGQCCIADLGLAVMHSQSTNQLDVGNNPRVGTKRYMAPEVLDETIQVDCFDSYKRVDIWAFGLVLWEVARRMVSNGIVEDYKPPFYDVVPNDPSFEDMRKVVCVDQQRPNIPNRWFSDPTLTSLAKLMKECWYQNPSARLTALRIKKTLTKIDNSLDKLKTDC
Chain of PKN1 (human) (Q16512 whole entry, looked up): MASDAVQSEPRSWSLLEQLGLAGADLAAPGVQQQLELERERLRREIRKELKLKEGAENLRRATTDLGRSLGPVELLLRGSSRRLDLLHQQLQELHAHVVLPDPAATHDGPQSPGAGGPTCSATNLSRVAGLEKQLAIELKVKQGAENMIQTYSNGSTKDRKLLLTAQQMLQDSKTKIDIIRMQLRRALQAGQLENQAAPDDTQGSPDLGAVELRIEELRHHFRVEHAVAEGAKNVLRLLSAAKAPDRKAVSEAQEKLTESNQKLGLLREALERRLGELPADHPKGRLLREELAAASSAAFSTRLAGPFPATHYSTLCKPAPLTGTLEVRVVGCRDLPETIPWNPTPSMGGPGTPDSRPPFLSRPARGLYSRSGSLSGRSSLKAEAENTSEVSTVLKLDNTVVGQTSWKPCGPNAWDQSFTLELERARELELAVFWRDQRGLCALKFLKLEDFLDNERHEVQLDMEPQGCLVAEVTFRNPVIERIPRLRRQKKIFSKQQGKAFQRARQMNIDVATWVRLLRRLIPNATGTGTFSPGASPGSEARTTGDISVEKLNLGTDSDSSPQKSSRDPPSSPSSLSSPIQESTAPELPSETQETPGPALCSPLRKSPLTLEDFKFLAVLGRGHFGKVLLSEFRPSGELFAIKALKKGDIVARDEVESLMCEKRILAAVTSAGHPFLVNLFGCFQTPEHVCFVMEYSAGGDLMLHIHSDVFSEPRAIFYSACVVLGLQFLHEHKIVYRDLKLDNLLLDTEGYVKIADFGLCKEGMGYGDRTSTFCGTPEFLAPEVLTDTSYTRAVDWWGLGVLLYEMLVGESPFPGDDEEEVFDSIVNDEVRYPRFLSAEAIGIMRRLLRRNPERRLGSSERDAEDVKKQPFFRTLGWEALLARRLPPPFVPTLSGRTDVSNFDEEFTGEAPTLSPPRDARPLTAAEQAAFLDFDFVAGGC
Chain of PTK2 (human) (Q05397 whole entry, looked up): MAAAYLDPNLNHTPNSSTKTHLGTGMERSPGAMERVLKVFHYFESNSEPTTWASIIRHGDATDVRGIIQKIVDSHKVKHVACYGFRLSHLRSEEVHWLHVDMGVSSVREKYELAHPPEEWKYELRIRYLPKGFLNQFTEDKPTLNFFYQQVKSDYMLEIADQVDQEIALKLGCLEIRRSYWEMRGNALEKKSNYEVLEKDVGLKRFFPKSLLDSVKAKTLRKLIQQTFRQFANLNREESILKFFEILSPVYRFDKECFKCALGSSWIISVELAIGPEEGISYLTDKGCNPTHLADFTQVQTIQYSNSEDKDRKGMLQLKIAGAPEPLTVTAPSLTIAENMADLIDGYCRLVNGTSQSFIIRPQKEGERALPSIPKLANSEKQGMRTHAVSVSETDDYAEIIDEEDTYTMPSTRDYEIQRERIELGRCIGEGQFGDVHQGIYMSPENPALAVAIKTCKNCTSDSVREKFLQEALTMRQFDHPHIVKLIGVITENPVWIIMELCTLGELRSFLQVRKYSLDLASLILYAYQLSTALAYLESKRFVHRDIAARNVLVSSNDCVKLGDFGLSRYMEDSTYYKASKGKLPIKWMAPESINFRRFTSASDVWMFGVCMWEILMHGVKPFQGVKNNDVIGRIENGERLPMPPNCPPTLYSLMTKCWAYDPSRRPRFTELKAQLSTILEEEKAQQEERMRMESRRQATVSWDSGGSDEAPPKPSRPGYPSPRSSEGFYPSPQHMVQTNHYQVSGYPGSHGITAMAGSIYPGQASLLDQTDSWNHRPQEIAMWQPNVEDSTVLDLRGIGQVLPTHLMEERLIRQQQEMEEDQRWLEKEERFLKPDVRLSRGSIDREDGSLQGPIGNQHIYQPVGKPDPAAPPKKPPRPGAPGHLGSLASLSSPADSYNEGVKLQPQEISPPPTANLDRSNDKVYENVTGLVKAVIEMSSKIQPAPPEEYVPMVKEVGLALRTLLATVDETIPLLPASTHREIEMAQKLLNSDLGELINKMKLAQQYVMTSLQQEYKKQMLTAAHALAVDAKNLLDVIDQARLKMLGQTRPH
Chain of MAP4K5 (human) (Q9Y4K4 whole entry, looked up): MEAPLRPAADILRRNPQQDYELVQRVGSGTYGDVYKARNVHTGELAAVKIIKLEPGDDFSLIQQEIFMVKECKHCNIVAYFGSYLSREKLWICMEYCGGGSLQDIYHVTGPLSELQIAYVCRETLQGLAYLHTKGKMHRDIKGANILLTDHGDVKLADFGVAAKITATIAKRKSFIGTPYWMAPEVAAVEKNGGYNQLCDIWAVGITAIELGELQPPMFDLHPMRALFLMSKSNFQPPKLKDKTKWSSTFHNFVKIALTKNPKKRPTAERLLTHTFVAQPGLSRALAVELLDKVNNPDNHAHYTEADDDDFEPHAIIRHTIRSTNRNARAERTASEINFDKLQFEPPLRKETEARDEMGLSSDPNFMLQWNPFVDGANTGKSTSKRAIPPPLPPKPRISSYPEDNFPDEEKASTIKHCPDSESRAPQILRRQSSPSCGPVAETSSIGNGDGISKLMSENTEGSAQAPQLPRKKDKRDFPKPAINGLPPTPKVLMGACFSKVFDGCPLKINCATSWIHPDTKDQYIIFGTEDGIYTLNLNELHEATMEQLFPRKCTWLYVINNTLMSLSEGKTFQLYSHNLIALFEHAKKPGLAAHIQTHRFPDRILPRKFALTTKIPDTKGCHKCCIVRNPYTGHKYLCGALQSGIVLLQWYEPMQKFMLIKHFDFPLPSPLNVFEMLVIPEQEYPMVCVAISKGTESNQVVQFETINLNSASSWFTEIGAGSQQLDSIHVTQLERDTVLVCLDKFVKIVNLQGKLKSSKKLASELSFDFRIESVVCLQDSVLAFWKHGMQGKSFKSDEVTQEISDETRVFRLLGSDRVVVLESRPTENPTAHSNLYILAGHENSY
Chain of TGFBR1 (human) (P36897 whole entry, looked up): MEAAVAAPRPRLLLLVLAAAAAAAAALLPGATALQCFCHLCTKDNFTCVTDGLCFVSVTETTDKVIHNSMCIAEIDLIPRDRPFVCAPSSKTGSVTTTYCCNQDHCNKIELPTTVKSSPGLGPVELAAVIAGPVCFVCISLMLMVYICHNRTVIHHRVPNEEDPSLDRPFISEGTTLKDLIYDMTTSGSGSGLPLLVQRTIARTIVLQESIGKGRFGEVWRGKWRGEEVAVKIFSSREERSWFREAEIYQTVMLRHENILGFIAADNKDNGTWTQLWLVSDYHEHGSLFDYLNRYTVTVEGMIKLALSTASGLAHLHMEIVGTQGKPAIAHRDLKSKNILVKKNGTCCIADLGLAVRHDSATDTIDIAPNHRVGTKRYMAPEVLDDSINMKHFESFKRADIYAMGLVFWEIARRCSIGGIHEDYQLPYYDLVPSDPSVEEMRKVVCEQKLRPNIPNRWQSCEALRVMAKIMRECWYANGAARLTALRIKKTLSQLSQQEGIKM

kinase still bound, per cent of control [1] [%]	kinase still bound, per cent of control [2] [%]	kinase still bound, per cent of control [3] [%]	kinase still bound, per cent of control [4] [%]	kinase still bound, per cent of control [5] [%]	kinase still bound, per cent of control [6] [%]	kinase still bound, per cent of control [7] [%]	kinase still bound, per cent of control [8] [%]	kinase still bound, per cent of control [9] [%]	kinase still bound, per cent of control [10] [%]	kinase still bound, per cent of control [11] [%]	kinase still bound, per cent of control [12] [%]	kinase still bound, per cent of control [13] [%]	kinase still bound, per cent of control [14] [%]	kinase still bound, per cent of control [15] [%]	kinase still bound, per cent of control [16] [%]	kinase still bound, per cent of control [17] [%]	kinase still bound, per cent of control [18] [%]	kinase still bound, per cent of control [19] [%]	kinase still bound, per cent of control [20] [%]	SMILES	further results
2.2	100	100	100	100	100	100	100	100	100	100	100	100	100	100	100	100	100	100	100	Cc1ccc(C(=O)Nc2cccc(C(F)(F)F)c2)cc1Nc1cncc(C(N)=O)c1	kinase still bound, per cent of control [21]: 100%; kinase still bound, per cent of control [22]: 100%; kinase still bound, per cent of control [23]: 100%; kinase still bound, per cent of control [24]: 100%; kinase still bound, per cent of control [25]: 100%; kinase still bound, per cent of control [26]: 100%; kinase still bound, per cent of control [27]: 100%; kinase still bound, per cent of control [28]: 100%; kinase still bound, per cent of control [29]: 100%; kinase still bound, per cent of control [30]: 100%; kinase still bound, per cent of control [31]: 100%; kinase still bound, per cent of control [32]: 5%; kinase still bound, per cent of control [33]: 100%; kinase still bound, per cent of control [34]: 100%; kinase still bound, per cent of control [35]: 100%; kinase still bound, per cent of control [36]: 100%; kinase still bound, per cent of control [37]: 100%; kinase still bound, per cent of control [38]: 100%; kinase still bound, per cent of control [39]: 100%; kinase still bound, per cent of control [40]: 100%
100	100	1.8	100	100	100	100	18	0.1	10	100	100	100	0.2	100	100	100	0.25	100	21	C=CC(=O)Nc1cccc(Oc2nc(Nc3ccc(N4CCN(C)CC4)cc3OC)ncc2Cl)c1	kinase still bound, per cent of control [21]: 4%; kinase still bound, per cent of control [22]: 100%; kinase still bound, per cent of control [23]: 12%; kinase still bound, per cent of control [24]: 100%; kinase still bound, per cent of control [25]: 16%; kinase still bound, per cent of control [26]: 100%; kinase still bound, per cent of control [27]: 15%; kinase still bound, per cent of control [28]: 100%; kinase still bound, per cent of control [29]: 7%; kinase still bound, per cent of control [30]: 100%; kinase still bound, per cent of control [31]: 100%; kinase still bound, per cent of control [32]: 100%; kinase still bound, per cent of control [33]: 100%; kinase still bound, per cent of control [34]: 100%; kinase still bound, per cent of control [35]: 100%; kinase still bound, per cent of control [36]: 100%; kinase still bound, per cent of control [37]: 100%; kinase still bound, per cent of control [38]: 100%; kinase still bound, per cent of control [39]: 100%; kinase still bound, per cent of control [40]: 28%
100	100	100	100	100	100	100	100	0.4	100	100	100	100	100	100	100	100	100	6.2	100	COc1cc(C(=O)NC2CCN(C)CC2)ccc1Nc1ncc2c(n1)N(C1CCCC1)C(C)CC(=O)N2C (stereo not given)	kinase still bound, per cent of control [21]: 100%; kinase still bound, per cent of control [22]: 100%; kinase still bound, per cent of control [23]: 100%; kinase still bound, per cent of control [24]: 100%; kinase still bound, per cent of control [25]: 100%; kinase still bound, per cent of control [26]: 100%; kinase still bound, per cent of control [27]: 100%; kinase still bound, per cent of control [28]: 100%; kinase still bound, per cent of control [29]: 100%; kinase still bound, per cent of control [30]: 100%; kinase still bound, per cent of control [31]: 100%; kinase still bound, per cent of control [32]: 100%; kinase still bound, per cent of control [33]: 100%; kinase still bound, per cent of control [34]: 100%; kinase still bound, per cent of control [35]: 100%; kinase still bound, per cent of control [36]: 0%; kinase still bound, per cent of control [37]: 100%; kinase still bound, per cent of control [38]: 100%; kinase still bound, per cent of control [39]: 100%; kinase still bound, per cent of control [40]: 5.8%
